Measurements as given in patent EP2329817A1, “Retinoic acid receptor antagonists, miR-10a inhibitors and inhibitors of HOXB1 or HOXB3 repressors for treating pancreatic cancer” (Ernst-Moritz-Arndt-Universität Greifswald, priority 2009, dated 2011).

Assays:
Format in all cases: cell-based, human
miR-10a [1] = assay: cells
Method: Northern Blot analysis was performed essentially according to Kloosterman et al. ^16 using a miR-10 LNA probe ([…]) (Exiqon, Denmark). We had previously described protocols for RT-PCR^17 and RT-qPCR^18 . Primers for the RT-PCR were: HOXB1: sc-38686 and HOXB3: sc-38690-PR and RARα: sc-29465-PR all from Santa Cruz Biotechnology. For quantitative RT-PCR we used 100 ng of total RNA and the Roche Master SYBR Green kit. Single-band amplification was verified by melting curve dissociation protocols. A standard curve for β-actin using 1, 5, 10, 100, and 500 ng of total RNA was used for normalization. […]
PaTu-T cells were incubated as indicated, with DMSO (Co), 200 nM Ro-41-5253 (RARα inh), control-Morpholino, miR-10a Morpholino, miR-196 siRNA (Co), or RARα siRNA and PaTu-S cells were co-incubated with 1 µM retinoic acid (RA) and control siRNA, RARα siRNA or Ro-415253 and miR-10a expression was evaluated by Northern blot analysis (A). […] The effect of Ro-415253 on cell migration was analysed in an in vitro migration assay in PaTu-T cells. […]
PaTu-T cells were incubated for 24h with indicated concentrations of Ro-415253 and miR-10a expression was evaluated by northern blot analysis (upper panel). […] Patu-S cells were incubated tor 24h with indicated concentrations of ATRA and miR-10a expression was evaluated by northern blot analysis (upper panel). […]

HOXB1 = assay: RT-PCR / RT-qPCR of HOXB1 expression; conditions: quantitative PCR
Method: (§1) Northern Blot analysis was performed essentially according to Kloosterman et al. ^16 using a miR-10 LNA probe ([…]) (Exiqon, Denmark). We had previously described protocols for RT-PCR^17 and RT-qPCR^18 . Primers for the RT-PCR were: HOXB1: sc-38686 and HOXB3: sc-38690-PR and RARα: sc-29465-PR all from Santa Cruz Biotechnology. For quantitative RT-PCR we used 100 ng of total RNA and the Roche Master SYBR Green kit. Single-band amplification was verified by melting curve dissociation protocols. A standard curve for β-actin using 1, 5, 10, 100, and 500 ng of total RNA was used for normalization. RT-qPCR primers for HOXB1 were: forward 5'-[…]-3' and reverse 5'-[…]-3' and for HOXB3: forward 5'-[…]-3' and reverse 5'-[…]-3'.
(§2) PaTu-S and PaTu-T cells were treated (24h) as indicated with specific siRNAs against HOXB1 (B1) and HOXB3 (B3) (Co: DMSO control) in the presence or absence of Ro-41-5253. Migration of these cells was analysed after transplantation into zebrafish embryos (see Table 1) and downregulation of HOXB1 and HOXB3 expression in these cells was confirmed by PCR analysis (A).
(§3) A similar regulation is seen following incubation with miR-10a Morpholinos or with miR-10a siRNAs (right side; Control: control Morpholino or control-siRNA) (B). Results are normalized to β-actin expression and similar results were obtained in three independent experiments. […]

HOXB3 = assay: RT-PCR / RT-qPCR of HOXB3 expression; conditions: quantitative PCR
Method: as §1, §2, §3

miR-10a [2] = assay: Northern blot of miR-10a expression in PaTu-T cells (densitometry); conditions: for miR-10a expression: result in words
Method: as §1
PaTu-T cells were incubated as indicated, with DMSO (Co), 200 nM Ro-41-5253 (RARα inh), control-Morpholino, miR-10a Morpholino, miR-196 siRNA (Co), or RARα siRNA and PaTu-S cells were co-incubated with 1 µM retinoic acid (RA) and control siRNA, RARα siRNA or Ro-415253 and miR-10a expression was evaluated by Northern blot analysis (A). […] RT-PCR control of GAPDH was used as a loading control (not shown). Dose response curves for RA and the RARα antagonist and the RT-PCR control for RARα siRNA treatment are shown in Supplemental Fig. 1. The effect of Ro-415253 on cell migration was analysed in an in vitro migration assay in PaTu-T cells. […] An actin re-blot confirmed equal loading.
PaTu-T cells were incubated for 24h with indicated concentrations of Ro-415253 and miR-10a expression was evaluated by northern blot analysis (upper panel). GAPDH loading control is shown in the lower panel. […] Patu-S cells were incubated tor 24h with indicated concentrations of ATRA and miR-10a expression was evaluated by northern blot analysis (upper panel). GAPDH loading control is shown in the lower panel. (C) Specific "knockdown" of RARα in PaTu-Tcells by RARα siRNA. RT-PCR from total RNA of RARα or control siRNA (Co) treated PaTu-T cells (24h) confirms specific knockdown of RARa. RT-PCR of GAPDH control is shown in the lower panel.

Compound | fold induction at 1 µM (miR-10a [1]; Homo sapiens, 24 h, read-out: miR-10a expression upregulated) | HOXB1 expression (HOXB1; PaTu-S cells) | HOXB3 expression (HOXB3; PaTu-S cells) | reduction of miR-10a expression (miR-10a [2]; densitometric analysis, Ro-41-5253 at 200 nM) [fold] | miR-10a expression (miR-10a [2]) | miR-10a expression (miR-10a [2]; listed as Ro-415253) | upregulation of miR-10a expression by retinoic acid (miR-10a [1]; PaTu-S cells co-incubated with 1 µM retinoic acid) | HOXB1 expression (HOXB1; PaTu-T cells) | HOXB3 expression (HOXB3; PaTu-T cells)
CC1=C(/C=C/C(C)=C/C=C/C(C)=C/C(=O)O)C(C)(C)CCC1 [RA, all trans retinoic acid] | 7.2 | decreased | decreased | – | – | – | – | – | –
CCCCCCCOc1cc2c(cc1/C(C)=C/c1ccc(C(=O)O)cc1)C(C)(C)CCS2(=O)=O [Ro-41-5253, Benzoic acid, 4-(2-(7-(heptyloxy)-3,4-dihydro-4,4-dimethyl-2H-1-benzothiopyran-6-yl)-1-propenyl)-, S,S-dioxide, (E)] | – | – | – | 9.4 | significant decrease | Dose dependent repression | completely blocked | increased | increased
